Experimental data published in patent EP4745137A1 (Gluetacs Therapeutics (Shanghai) Co., Ltd., priority 2023, dated 2025).

Columns and labels:
[1] = molecular target: T1, human Cereblon WT GST-tagged protein (Homo sapiens, UniProt Q96SW2); assay: CRBN-binding affinity by HTRF (CEREBLON BINDING kit); settings: HTRF inhibitory activity, CEREBLON BINDING kit; read-out: HTRF IC50
T1 construct: purchased CISBIO 64BDCRBNPEH

[2] = system: Human acute T lymphocytic leukemia cells (Molt-4); assay: Tumor cell proliferation inhibition (CellTiter-Meiluncell Luminescent Cell Viability Assay), Molt-4; settings: MOLT-4, 96 h, read-out: inhibitory activity (IC50, nM) against tumor cells proliferation, Molt 4
[3] = system: CAL-62; assay: Tumor cell proliferation inhibition (CellTiter-Meiluncell Luminescent Cell Viability Assay), CAL-62; settings: Homo sapiens, CAL-62, 96 h, read-out: inhibitory activity (IC50, nM) against tumor cells proliferation, CAL-62
[4] = molecular target: T2, CK1α (Homo sapiens, UniProt P48729+Q96SW2); assay: Western-blot assay of substrate protein degradation in hPBMCs, CK1α; type: cell-based; settings: 24 hours of compound treatment, compounds tested at 50 nM and 500 nM (concentration of the table not stated)
T2 construct: endogenous in cells; host or cells: hPBMCs (Milecell Biotechnologies)
T2 sequence (P48729 whole entry): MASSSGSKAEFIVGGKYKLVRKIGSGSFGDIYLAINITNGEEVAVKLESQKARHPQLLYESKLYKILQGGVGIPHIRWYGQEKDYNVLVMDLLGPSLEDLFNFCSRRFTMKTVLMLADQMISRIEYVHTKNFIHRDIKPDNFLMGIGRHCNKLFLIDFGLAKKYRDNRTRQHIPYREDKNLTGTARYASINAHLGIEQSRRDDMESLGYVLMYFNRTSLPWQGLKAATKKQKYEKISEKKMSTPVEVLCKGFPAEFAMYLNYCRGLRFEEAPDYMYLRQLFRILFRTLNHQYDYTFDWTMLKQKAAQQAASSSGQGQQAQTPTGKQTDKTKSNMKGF
T2 sequence (Q96SW2 whole entry): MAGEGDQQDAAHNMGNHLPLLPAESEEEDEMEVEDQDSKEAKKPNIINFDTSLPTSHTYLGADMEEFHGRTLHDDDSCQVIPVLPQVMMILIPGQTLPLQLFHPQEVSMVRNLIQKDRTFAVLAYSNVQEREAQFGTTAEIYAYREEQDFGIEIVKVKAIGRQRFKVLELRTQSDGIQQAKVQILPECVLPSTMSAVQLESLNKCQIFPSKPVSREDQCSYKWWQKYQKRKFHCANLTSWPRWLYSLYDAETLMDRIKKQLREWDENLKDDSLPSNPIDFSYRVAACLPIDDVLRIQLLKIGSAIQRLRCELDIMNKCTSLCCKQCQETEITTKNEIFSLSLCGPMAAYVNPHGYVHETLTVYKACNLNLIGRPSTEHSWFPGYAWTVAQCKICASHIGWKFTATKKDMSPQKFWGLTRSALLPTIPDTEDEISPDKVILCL
T2 sequence (Q16531 whole entry partner): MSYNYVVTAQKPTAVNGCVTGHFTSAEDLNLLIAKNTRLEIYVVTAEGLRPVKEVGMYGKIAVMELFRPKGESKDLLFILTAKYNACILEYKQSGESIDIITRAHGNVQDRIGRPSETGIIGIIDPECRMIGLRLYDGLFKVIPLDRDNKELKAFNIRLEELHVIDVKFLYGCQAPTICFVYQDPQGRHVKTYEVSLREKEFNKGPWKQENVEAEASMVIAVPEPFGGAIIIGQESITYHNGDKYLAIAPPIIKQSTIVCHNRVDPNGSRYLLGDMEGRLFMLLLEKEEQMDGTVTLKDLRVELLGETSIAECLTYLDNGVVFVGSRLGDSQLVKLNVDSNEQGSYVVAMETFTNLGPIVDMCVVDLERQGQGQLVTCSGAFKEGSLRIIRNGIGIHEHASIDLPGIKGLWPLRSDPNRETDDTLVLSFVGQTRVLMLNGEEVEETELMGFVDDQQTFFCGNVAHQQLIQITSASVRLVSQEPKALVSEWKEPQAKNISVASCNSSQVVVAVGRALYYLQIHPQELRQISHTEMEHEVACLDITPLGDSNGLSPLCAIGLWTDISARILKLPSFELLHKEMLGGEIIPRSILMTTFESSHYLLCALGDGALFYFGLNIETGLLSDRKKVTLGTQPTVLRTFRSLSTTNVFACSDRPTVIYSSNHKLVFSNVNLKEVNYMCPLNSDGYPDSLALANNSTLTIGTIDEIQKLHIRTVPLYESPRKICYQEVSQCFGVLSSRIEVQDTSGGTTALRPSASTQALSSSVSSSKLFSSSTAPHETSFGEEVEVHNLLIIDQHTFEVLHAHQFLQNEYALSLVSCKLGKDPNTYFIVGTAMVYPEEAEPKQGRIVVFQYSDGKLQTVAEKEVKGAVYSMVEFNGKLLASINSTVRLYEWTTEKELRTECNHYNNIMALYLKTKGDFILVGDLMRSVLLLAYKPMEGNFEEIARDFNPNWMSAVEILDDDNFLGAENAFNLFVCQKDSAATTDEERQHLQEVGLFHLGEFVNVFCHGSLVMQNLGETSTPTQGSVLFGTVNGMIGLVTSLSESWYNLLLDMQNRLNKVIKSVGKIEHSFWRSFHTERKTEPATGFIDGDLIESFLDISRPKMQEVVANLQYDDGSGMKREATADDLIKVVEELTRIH

[5] = molecular target: T3, IKZF1 (Homo sapiens, UniProt Q13422+Q96SW2); assay: Western-blot assay of substrate protein degradation in hPBMCs, IKZF1; type: cell-based; settings: 24 hours of compound treatment, compounds tested at 50 nM and 500 nM (concentration of the table not stated)
T3 construct: endogenous in cells; host or cells: hPBMCs (Milecell Biotechnologies)
T3 sequence (Q13422 whole entry): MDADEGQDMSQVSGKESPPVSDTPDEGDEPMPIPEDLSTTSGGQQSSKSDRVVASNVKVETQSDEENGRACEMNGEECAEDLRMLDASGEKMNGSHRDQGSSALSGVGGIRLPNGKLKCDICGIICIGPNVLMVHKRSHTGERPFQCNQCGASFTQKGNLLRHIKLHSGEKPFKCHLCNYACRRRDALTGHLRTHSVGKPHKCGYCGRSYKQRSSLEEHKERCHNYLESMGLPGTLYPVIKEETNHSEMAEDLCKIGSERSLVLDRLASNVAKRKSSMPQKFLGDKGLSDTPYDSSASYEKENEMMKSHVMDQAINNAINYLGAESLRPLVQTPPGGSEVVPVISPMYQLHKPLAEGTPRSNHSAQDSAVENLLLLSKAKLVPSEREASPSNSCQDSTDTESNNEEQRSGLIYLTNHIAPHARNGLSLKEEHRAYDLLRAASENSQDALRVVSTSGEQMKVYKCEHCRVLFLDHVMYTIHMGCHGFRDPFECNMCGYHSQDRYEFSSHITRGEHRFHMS
T3 sequence (Q96SW2 whole entry): as the sequence (Q96SW2 whole entry) above
T3 sequence (Q16531 whole entry partner): as the sequence (Q16531 whole entry partner) above

[6] = molecular target: T4, WEE1 (Homo sapiens, UniProt P30291+Q96SW2); assay: Western-blot assay of substrate protein degradation in hPBMCs, WEE1; type: cell-based; settings: 24 hours of compound treatment, compounds tested at 50 nM and 500 nM (concentration of the table not stated)
T4 construct: endogenous in cells; host or cells: hPBMCs (Milecell Biotechnologies)
T4 sequence (P30291 whole entry): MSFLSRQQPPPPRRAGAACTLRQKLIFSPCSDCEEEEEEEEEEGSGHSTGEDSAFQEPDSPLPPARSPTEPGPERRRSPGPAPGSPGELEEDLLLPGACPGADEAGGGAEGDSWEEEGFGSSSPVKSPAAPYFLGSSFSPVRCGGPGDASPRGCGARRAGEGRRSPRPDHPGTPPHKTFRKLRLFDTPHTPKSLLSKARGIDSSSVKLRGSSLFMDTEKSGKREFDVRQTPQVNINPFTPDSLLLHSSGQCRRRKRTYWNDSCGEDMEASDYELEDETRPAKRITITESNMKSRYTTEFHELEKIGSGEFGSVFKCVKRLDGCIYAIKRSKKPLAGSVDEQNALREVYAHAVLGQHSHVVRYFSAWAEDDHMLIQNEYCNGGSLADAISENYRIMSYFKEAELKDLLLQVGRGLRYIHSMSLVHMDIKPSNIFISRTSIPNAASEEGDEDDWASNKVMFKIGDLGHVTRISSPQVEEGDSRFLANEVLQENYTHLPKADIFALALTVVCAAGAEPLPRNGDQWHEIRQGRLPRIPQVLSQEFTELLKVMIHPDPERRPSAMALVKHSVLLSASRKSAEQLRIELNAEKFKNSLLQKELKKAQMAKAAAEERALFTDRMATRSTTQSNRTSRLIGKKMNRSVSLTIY
T4 sequence (Q96SW2 whole entry): as the sequence (Q96SW2 whole entry) above
T4 sequence (Q16531 whole entry partner): as the sequence (Q16531 whole entry partner) above

[7] = system: CCRF-CEM; assay: Tumor cell proliferation inhibition (CellTiter-Meiluncell Luminescent Cell Viability Assay), CCRF-CEM; settings: Homo sapiens, 96 h, read-out: inhibitory activity (IC50, nM) against tumor cells proliferation, CCRF-CEM
[8] = system: MM.1R; assay: Tumor cell proliferation inhibition (CellTiter-Meiluncell Luminescent Cell Viability Assay), MM.1R; settings: Homo sapiens, 96 h, read-out: inhibitory activity (IC50, nM) against tumor cells proliferation, MM.1R
[9] = system: SW620; assay: Tumor cell proliferation inhibition (CellTiter-Meiluncell Luminescent Cell Viability Assay), SW620; settings: Homo sapiens, SW-620, 96 h, read-out: inhibitory activity (IC50, nM) against tumor cells proliferation, SW620
[10] = molecular target: T5, IKZF3 (Homo sapiens, UniProt Q96SW2+Q9UKT9); assay: Western-blot assay of substrate protein degradation in hPBMCs, IKZF3; type: cell-based; settings: 24 hours of compound treatment, compounds tested at 50 nM and 500 nM (concentration of the table not stated)
T5 construct: endogenous in cells; host or cells: hPBMCs (Milecell Biotechnologies)

[11] = system: Vcap; assay: Tumor cell proliferation inhibition (CellTiter-Meiluncell Luminescent Cell Viability Assay), Vcap; settings: Homo sapiens, 96 h, read-out: inhibitory activity (IC50, nM) against tumor cells proliferation, Vcap
Protocol: The tumor cells used herein were cultured in a cell culture medium listed in table 2 at 37°C in an incubator with 5% CO2. Prior to experimentation, all cell lines used were correctly identified by STR profiling, and tested negative for mycoplasma contamination using a mycoplasma detection kit through routine screenings.
On the following day, the test compounds of the present disclosure were subjected to serial dilution. […] Subsequently, 0.5 µL of the test compound dilution was transferred into the 96-well plate containing the cells, with each well containing 100 µL of cell culture medium. […] Into the 96-well plate, the diluted test compounds and corresponding detection reagents were added, resulting in final test compound concentrations of 500 nM and 10 nM, respectively. The experimental procedure is described below using the diluted 2 µM test compound as an example.
After the cells were treated with the compounds of the present disclosure for a specified period (the treatment durations were shown in Table 3), the cell viability assay reagent was added to the culture medium according to the kit's instructions to determine cell viability. […] All controls were treated using the same procedure as the compounds of the present disclosure. The growth inhibition curves for the compounds of the present disclosure were plotted using Prism GraphPad software, and the IC50 values were calculated therefrom.

[12] = molecular target: T6, IKZF2 (Homo sapiens, UniProt Q96SW2+Q9UKS7); assay: Western-blot assay of substrate protein degradation in hPBMCs, IKZF2; type: cell-based; settings: 24 hours of compound treatment, compounds tested at 50 nM and 500 nM (concentration of the table not stated)
T6 construct: endogenous in cells; host or cells: hPBMCs (Milecell Biotechnologies)
T6 sequence (Q9UKS7 whole entry): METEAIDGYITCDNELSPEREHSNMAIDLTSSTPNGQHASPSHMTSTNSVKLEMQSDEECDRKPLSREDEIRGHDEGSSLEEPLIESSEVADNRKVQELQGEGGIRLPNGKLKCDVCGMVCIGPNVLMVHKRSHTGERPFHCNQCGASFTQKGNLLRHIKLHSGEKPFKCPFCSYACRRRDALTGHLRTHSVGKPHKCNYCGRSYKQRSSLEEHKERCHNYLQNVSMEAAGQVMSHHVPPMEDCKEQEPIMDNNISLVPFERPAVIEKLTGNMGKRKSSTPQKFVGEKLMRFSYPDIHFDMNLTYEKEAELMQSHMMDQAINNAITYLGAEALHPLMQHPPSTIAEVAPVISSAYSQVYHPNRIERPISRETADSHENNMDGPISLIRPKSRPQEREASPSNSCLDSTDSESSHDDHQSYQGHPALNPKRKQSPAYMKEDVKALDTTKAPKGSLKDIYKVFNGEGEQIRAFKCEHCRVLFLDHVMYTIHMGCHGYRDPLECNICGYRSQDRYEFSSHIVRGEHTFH
T6 sequence (Q96SW2 whole entry): as the sequence (Q96SW2 whole entry) above
T6 sequence (Q16531 whole entry partner): as the sequence (Q16531 whole entry partner) above

[13] = system: Jurkat; assay: Tumor cell proliferation inhibition (CellTiter-Meiluncell Luminescent Cell Viability Assay), Jurkat; settings: Homo sapiens, 96 h, read-out: inhibitory activity (IC50, nM) against tumor cells proliferation, Jurkat
[14] = molecular target: T7, GSPT1 (Homo sapiens, UniProt P15170+Q96SW2); assay: Western-blot assay of substrate protein degradation in hPBMCs, GSPT1; type: cell-based; settings: 24 hours of compound treatment, compounds tested at 50 nM and 500 nM (concentration of the table not stated)
T7 construct: endogenous in cells; host or cells: hPBMCs (Milecell Biotechnologies)
T7 sequence (P15170 whole entry): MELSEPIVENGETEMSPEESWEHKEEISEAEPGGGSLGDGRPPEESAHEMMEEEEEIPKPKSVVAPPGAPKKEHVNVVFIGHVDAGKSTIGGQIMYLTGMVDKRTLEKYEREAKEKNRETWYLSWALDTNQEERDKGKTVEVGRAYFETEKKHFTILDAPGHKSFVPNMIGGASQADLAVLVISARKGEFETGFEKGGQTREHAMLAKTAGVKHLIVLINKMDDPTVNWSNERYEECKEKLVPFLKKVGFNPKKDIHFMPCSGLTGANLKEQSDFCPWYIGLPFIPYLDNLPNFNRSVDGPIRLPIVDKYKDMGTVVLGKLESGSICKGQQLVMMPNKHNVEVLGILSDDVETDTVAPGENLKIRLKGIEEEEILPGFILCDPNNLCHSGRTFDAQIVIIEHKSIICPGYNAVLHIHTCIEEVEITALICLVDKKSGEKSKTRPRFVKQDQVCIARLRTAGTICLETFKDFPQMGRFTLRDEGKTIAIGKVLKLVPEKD
T7 sequence (Q96SW2 whole entry): as the sequence (Q96SW2 whole entry) above
T7 sequence (Q16531 whole entry partner): as the sequence (Q16531 whole entry partner) above

[15] = system: TMD8; assay: Tumor cell proliferation inhibition (CellTiter-Meiluncell Luminescent Cell Viability Assay), TMD8; settings: Homo sapiens, TMD8, 96 h, read-out: inhibitory activity (IC50, nM) against tumor cells proliferation, TMD8
[16] = system: Human breast cancer cells (MDA-MB-231); assay: Tumor cell proliferation inhibition (CellTiter-Meiluncell Luminescent Cell Viability Assay), MDA-MB-231; settings: MDA-MB-231, 96 h, read-out: inhibitory activity (IC50, nM) against tumor cells proliferation, MDA-MB-231
[17] = system: NCI-H1975; assay: Tumor cell proliferation inhibition (CellTiter-Meiluncell Luminescent Cell Viability Assay), NCI-H1975; settings: Homo sapiens, NCI-H1975, 96 h, read-out: inhibitory activity (IC50, nM) against tumor cells proliferation, H1975

T1 sequence (Q96SW2 whole entry): as the sequence (Q96SW2 whole entry) above

IC50 [1]	IC50 [2]	IC50 [3]	IC50 [7]	IC50 [8]	IC50 [9]	IC50 [11]	IC50 [13]	IC50 [15]	IC50 [16]	IC50 [17]	SMILES	CK1a substrate protein remaining % [4]	IKZF 1 substrate protein remaining % [5]	Weel substrate protein remaining % [6]	IKZF3 substrate protein remaining % [10]	IKZF2 substrate protein remaining % [12]	GSPT1 substrate protein remaining % [14]
0.5 to 1 µM	10 to 50 nM	10 to 50 nM	10 to 50 nM	10 to 50 nM	100 to 500 nM	50 to 100 nM	10 to 50 nM				Cc1ccsc1C1CCN(Cc2ccc3c(c2)CN(C2CCC(=O)NC2=O)C3=O)CC1 (stereo not shown) [GT-04502, 3-(5-((4-(3-methylthiophen-2-yl)piperidin-1-yl)methyl)-1-oxoisoindolin-2-yl)piperidine-2,6-dione]	A (0% ≤ substrate protein remaining % ≤ 80%)	A (0% ≤ substrate protein remaining % ≤ 80%)	A (0% ≤ substrate protein remaining % ≤ 80%)	A (0% ≤ substrate protein remaining % ≤ 80%)	A (0% ≤ substrate protein remaining % ≤ 80%)	A (0% ≤ substrate protein remaining % ≤ 80%)
0.5 to 1 µM		50 to 100 nM	10 to 50 nM		100 to 500 nM	500 to 1000 nM	100 to 500 nM				O=C1CCC(N2Cc3cc(CN4CCN(c5nsc6ccccc56)CC4)ccc3C2=O)C(=O)N1 (stereo not shown) [GT-04255, 3-(5-((4-(benzo[d]isothiazol-3-yl)piperazin-1-yl)methyl)-1-oxoisoindolin-2-yl)piperidine-2,6-dione]	A (0% ≤ substrate protein remaining % ≤ 80%)	A (0% ≤ substrate protein remaining % ≤ 80%)	A (0% ≤ substrate protein remaining % ≤ 80%)	A (0% ≤ substrate protein remaining % ≤ 80%)	A (0% ≤ substrate protein remaining % ≤ 80%)	A (0% ≤ substrate protein remaining % ≤ 80%)
< 0.5 µM	1 to 5 nM							10 to 50 nM	5 to 10 nM	10 to 50 nM	Cn1cc(C2=CCN(Cc3ccc4c(c3)CN(C3CCC(=O)NC3=O)C4=O)CC2)c2ccc(F)cc21 (stereo not shown) [GT-04723, 3-(5-((4-(6-fluoro-1-methyl-1H-indol-3-yl)-3,6-dihydropyridin-1(2H)-yl)methyl)-1-oxoisoindolin-2-yl)piperidine-2,6-dione]	A (0% ≤ substrate protein remaining % ≤ 80%)	A (0% ≤ substrate protein remaining % ≤ 80%)	A (0% ≤ substrate protein remaining % ≤ 80%)	A (0% ≤ substrate protein remaining % ≤ 80%)	A (0% ≤ substrate protein remaining % ≤ 80%)	A (0% ≤ substrate protein remaining % ≤ 80%)
1 to 1.5 µM	5 to 10 nM							100 to 500 nM	10 to 50 nM	50 to 100 nM	Cc1cc(C2CCN(Cc3ccc4c(c3)CN(C3CCC(=O)NC3=O)C4=O)CC2)cs1 (stereo not shown) [GT-04588, 3-(5-((4-(5-methylthiophen-3-yl)piperidin-1-yl)methyl)-1-oxoisoindolin-2-yl)piperidine-2,6-dione]	B (80%< substrate protein remaining %≤ 100%)	B (80%< substrate protein remaining %≤ 100%)	B (80%< substrate protein remaining %≤ 100%)	B (80%< substrate protein remaining %≤ 100%)	A (0% ≤ substrate protein remaining % ≤ 80%)	A (0% ≤ substrate protein remaining % ≤ 80%)
0.5 to 1 µM	1 to 5 nM							10 to 50 nM	5 to 10 nM	10 to 50 nM	Cc1nc(C2=CCN(Cc3ccc4c(c3)CN(C3CCC(=O)NC3=O)C4=O)CC2)c2ccsc2n1 (stereo not shown) [GT-04718, 3-(5-((4-(2-methylthieno[2,3-d]pyrimidin-4-yl)-3,6-dihydropyridin-1(2H)-yl)methyl)-1-oxoisoindolin-2-yl)piperidine-2,6-dione]	B (80%< substrate protein remaining %≤ 100%)	A (0% ≤ substrate protein remaining % ≤ 80%)	A (0% ≤ substrate protein remaining % ≤ 80%)	A (0% ≤ substrate protein remaining % ≤ 80%)	A (0% ≤ substrate protein remaining % ≤ 80%)	A (0% ≤ substrate protein remaining % ≤ 80%)
1 to 1.5 µM	5 to 10 nM							50 to 100 nM	10 to 50 nM	50 to 100 nM	Cc1ccc(C2CCN(Cc3ccc4c(c3)CN(C3CCC(=O)NC3=O)C4=O)CC2)s1 (stereo not shown) [GT-04573, 3-(5-((4-(5-methylthiophen-2-yl)piperidin-1-yl)methyl)-1-oxoisoindolin-2-yl)piperidine-2,6-dione]	A (0% ≤ substrate protein remaining % ≤ 80%)	A (0% ≤ substrate protein remaining % ≤ 80%)	A (0% ≤ substrate protein remaining % ≤ 80%)	A (0% ≤ substrate protein remaining % ≤ 80%)	A (0% ≤ substrate protein remaining % ≤ 80%)	A (0% ≤ substrate protein remaining % ≤ 80%)

SMILES	IC50 [1]	IC50 [2]	IC50 [3]	IC50 [7]	IC50 [8]	IC50 [9]	IC50 [11]	IC50 [13]	IC50 [15]	IC50 [16]	IC50 [17]	CK1a substrate protein remaining % [4]	IKZF 1 substrate protein remaining % [5]	Weel substrate protein remaining % [6]	IKZF3 substrate protein remaining % [10]	IKZF2 substrate protein remaining % [12]	GSPT1 substrate protein remaining % [14]
O=C1CCC(N2Cc3cc(CN4CC=C(c5ncnc6sccc56)CC4)ccc3C2=O)C(=O)N1 (stereo not shown) [GT-04692, 3-(1-oxo-5-((4-(thieno[2,3-d]pyrimidin-4-yl)-3,6-dihydropyridin-1(2H)-yl)methyl)isoindolin-2-yl)piperidine-2,6-dione]	< 0.5 µM	1 to 5 nM							10 to 50 nM	10 to 50 nM	50 to 100 nM	A (0% ≤ substrate protein remaining % ≤ 80%)	A (0% ≤ substrate protein remaining % ≤ 80%)	A (0% ≤ substrate protein remaining % ≤ 80%)	A (0% ≤ substrate protein remaining % ≤ 80%)	A (0% ≤ substrate protein remaining % ≤ 80%)	A (0% ≤ substrate protein remaining % ≤ 80%)
O=C1CCC(N2Cc3cc(CN4CC=C(c5cncc(Cl)c5)CC4)ccc3C2=O)C(=O)N1 (stereo not shown) [GT-04620, 3-(5-((5-chloro-3',6'-dihydro-[3,4'-bipyridin]-1'(2'H)-yl)methyl)-1-oxoisoindolin-2-yl)piperidine-2,6-dione]	0.5 to 1 µM	1 to 5 nM							10 to 50 nM	10 to 50 nM	10 to 50 nM	B (80%< substrate protein remaining %≤ 100%)	A (0% ≤ substrate protein remaining % ≤ 80%)	A (0% ≤ substrate protein remaining % ≤ 80%)	A (0% ≤ substrate protein remaining % ≤ 80%)	A (0% ≤ substrate protein remaining % ≤ 80%)	A (0% ≤ substrate protein remaining % ≤ 80%)
O=C1CCC(N2Cc3cc(CN4CCC(N5CCc6cc(F)ccc65)CC4)ccc3C2=O)C(=O)N1 (stereo not shown) [GT-04650, 3-(5-((4-(5-fluoroindolin-1-yl)piperidin-1-yl)methyl)-1-oxoisoindolin-2-yl)piperidine-2,6-dione]	< 0.5 µM	10 to 50 nM							100 to 500 nM	50 to 100 nM	50 to 100 nM	B (80%< substrate protein remaining %≤ 100%)	A (0% ≤ substrate protein remaining % ≤ 80%)	A (0% ≤ substrate protein remaining % ≤ 80%)	A (0% ≤ substrate protein remaining % ≤ 80%)	A (0% ≤ substrate protein remaining % ≤ 80%)	A (0% ≤ substrate protein remaining % ≤ 80%)
